Tests used:
Test in all cases: relative viability (nuclei count vs DMSO), 5 days (fraction); higher = more cells survive
IPA-3 + Foretinib = compound: C1=CC=C2C(=C1)C=CC(=C2SSC3=C(C=CC4=CC=CC=C43)O)O [IPA-3] + COc1cc2c(Oc3ccc(NC(=O)C4(C(=O)Nc5ccc(F)cc5)CC4)cc3F)ccnc2cc1OCCCN1CCOCC1 [Foretinib] (partner 0.25 µM)
Summary of the method: (§1)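 Lung cancer cell lines were seeded in 1536-well plates and dosed by pin tool the next day, with either a single drug or a fixed anchor-drug dose combined with five library-drug doses (not always all listed) spaced in √10 steps. Five days later, one step fixed the cells and stained their nuclei (final 0.05% Triton X-100, 1% formaldehyde, 1 ug/ml Hoechst), and nuclei were counted on 4× images. Relative viability is the nuclei count in treated wells divided by the count in vehicle wells, and each value is the median of duplicate plates.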

IPA-3 + Lapatinib = compound: C1=CC=C2C(=C1)C=CC(=C2SSC3=C(C=CC4=CC=CC=C43)O)O [IPA-3] + CS(=O)(=O)CCNCc1ccc(-c2ccc3ncnc(Nc4ccc(OCc5cccc(F)c5)c(Cl)c4)c3c2)o1 [Lapatinib] (partner 2 µM)
Summary of the method: as §1

Doramapimod + Tozasertib = compound: Cc1ccc(-n2nc(C(C)(C)C)cc2NC(=O)Nc2ccc(OCCN3CCOCC3)c3ccccc23)cc1 [Doramapimod] + Cc1cc(Nc2cc(N3CCN(C)CC3)nc(Sc3ccc(NC(=O)C4CC4)cc3)n2)n[nH]1 [Tozasertib] (partner 0.1 µM)
Summary of the method: as §1

Doramapimod + Decitabine = compound: Cc1ccc(-n2nc(C(C)(C)C)cc2NC(=O)Nc2ccc(OCCN3CCOCC3)c3ccccc23)cc1 [Doramapimod] + Nc1ncn([C@H]2C[C@H](O)[C@@H](CO)O2)c(=O)n1 [Decitabine] (partner 2 µM)
Summary of the method: as §1

| Cell Line | relative viability (IPA-3 + Foretinib; first compound 0.2 µM) | relative viability (IPA-3 + Foretinib; first compound 0.6325 µM) | relative viability (IPA-3 + Foretinib; first compound 2 µM) | relative viability (IPA-3 + Foretinib; first compound 6.325 µM) | relative viability (IPA-3 + Foretinib; first compound 20 µM) | relative viability (IPA-3 + Lapatinib; first compound 0.2 µM) | relative viability (IPA-3 + Lapatinib; first compound 0.6325 µM) | relative viability (IPA-3 + Lapatinib; first compound 2 µM) | relative viability (IPA-3 + Lapatinib; first compound 6.325 µM) | relative viability (IPA-3 + Lapatinib; first compound 20 µM) | relative viability (Doramapimod + Tozasertib; first compound 0.02 µM) | relative viability (Doramapimod + Tozasertib; first compound 0.2 µM) | relative viability (Doramapimod + Tozasertib; first compound 0.6325 µM) | relative viability (Doramapimod + Tozasertib; first compound 2 µM) | relative viability (Doramapimod + Decitabine; first compound 0.02 µM) | relative viability (Doramapimod + Decitabine; first compound 0.06325 µM) | relative viability (Doramapimod + Decitabine; first compound 0.2 µM) | relative viability (Doramapimod + Decitabine; first compound 0.6325 µM) | relative viability (Doramapimod + Decitabine; first compound 2 µM) | relative viability (Doramapimod + Tozasertib; first compound 0.06325 µM) |
| --- | --- | --- | --- | --- | --- | --- | --- | --- | --- | --- | --- | --- | --- | --- | --- | --- | --- | --- | --- | --- |
| NCI-H2347 | 1.24 | 0.916 | 0.908 | 0.902 | 0.899 | 1.08 | 0.938 | 0.99 | 0.945 | 0.935 | 0.552 | 0.565 | 0.587 | 0.555 | 0.671 | 0.604 | 0.626 | 0.656 | 0.634 | – |
| NCI-H2405 | 1.12 | 1.07 | 1.07 | 1.07 | 1.06 | 1.15 | 1 | 0.921 | 1.17 | 1.16 | 0.774 | 0.675 | 0.869 | 0.635 | 0.758 | 0.713 | 0.703 | 0.861 | 0.685 | 0.703 |
| NCI-H3122 | 1.01 | 0.958 | 0.941 | 0.955 | 1.06 | 1.02 | 0.996 | 0.993 | 1.09 | 0.946 | 0.439 | 0.448 | 0.431 | 0.365 | 0.427 | 0.445 | 0.394 | 0.491 | 0.415 | 0.408 |
| PC-3 [JPC-3] | 1.06 | 0.975 | 1.04 | 0.965 | 1 | 0.494 | 0.467 | 0.422 | 0.504 | 0.457 | 0.914 | 0.938 | 1.03 | 0.92 | 0.834 | 0.816 | 0.857 | 0.888 | 0.766 | 0.961 |
| PC-14 | 1.07 | 0.938 | 0.941 | 0.874 | 1.07 | 0.419 | 0.331 | 0.328 | 0.328 | 0.407 | 0.582 | 0.588 | 0.647 | 0.525 | 0.261 | 0.22 | 0.215 | 0.277 | 0.197 | 0.602 |
| RERF-LC-KJ | 1.02 | 0.913 | 0.868 | 0.847 | 1.04 | 1 | 0.828 | 0.764 | 0.801 | 0.897 | 0.506 | 0.609 | 0.516 | 0.498 | 0.733 | 0.669 | 0.663 | 0.684 | 0.669 | 0.535 |
| SK-LU-1 | 1.01 | 0.78 | 0.908 | 0.828 | 0.911 | 1.18 | 0.744 | 1.01 | 0.756 | 0.692 | 0.348 | 0.314 | 0.347 | 0.277 | 0.636 | 0.617 | 0.662 | 0.637 | 0.592 | 0.41 |
| SK-MES-1 | 0.982 | 0.889 | 0.892 | 0.953 | 1.22 | 0.524 | 0.431 | 0.487 | 0.423 | 0.449 | 0.94 | 0.81 | 0.856 | 0.781 | 0.329 | 0.355 | 0.356 | 0.424 | 0.315 | 0.869 |
| SW 1573 | 1.06 | 0.83 | 0.806 | 0.808 | 0.893 | 1.17 | 1.09 | 1.03 | 1.06 | 1.06 | 0.267 | 0.198 | 0.22 | 0.157 | 0.506 | 0.388 | 0.615 | 0.575 | 0.366 | 0.208 |
